# Measurements as given in patent publication US12617814B2, “Neuroactive steroids and methods of use thereof” (Sage Therapeutics, LLC, priority 2013, dated 2026).
# Tests used:
# [1] = target: T1, NMDA receptor (GRIN1/GRIN2A subunits) (Homo sapiens, UniProt Q05586+Q12879); assay: NMDA potentiation, whole-cell patch clamp of HEK cells expressing NMDA receptor; type: cell-based; settings: HEK cells, 30 μM NMDA and 5.0 μM Glycine; for activation at 0.1 µM: HEK293, 0.1 uM compound, read-out: NMDA 1a2A (%) Potentiation 0.1 uM; for activation at 1 µM: HEK293, 1 uM compound, read-out: NMDA 1a2A (%) Potentiation 1 uM
# T1 construct: expressed in transfected cells
# Method: (§1) NMDA potentiation was assessed using either whole cell patch clamp of mammalian cells which expressed NMDA receptors, or using two-electrode voltage clamp (TEVC) of Xenopus Laevis oocytes expressing NMDA receptors.
# NMDA/Glycine peak and steady-state currents were recorded from stably transfected cells expressing the NMDA receptor and the modulatory effects of the test items on these currents were investigated.
# Cells were stably transfected with human GRIN1 (variant NR1-3). These cells were transiently transfected (Lipofectamine™) with GRIN2A cDNA and CD8 (pLeu) antigene cDNA. About 24-72 hours following transfection 1 μl Dynabeads M-45 CD8 was added to identify successfully transfected cells (Jurman et al., Biotechniques (1994) 17:876-881). Cells were passaged to a confluence of 50-80%. Cells were seeded onto Poly-L-Lysine coated cover slips covered with culture complete medium in a 35 mm culture dish. Confluent clusters of cells are electrically coupled (Pritchett et al., Science (1988), 242:1306-8). Because responses in distant cells are not adequately voltage clamped and because of uncertainties about the extent of coupling (Verdoorn et al., Neuron (1990), 4:919-28), cells were cultivated at a density that enables single cells (without visible connections to neighboring cells) to be measured. Cells were incubated at 37° C. in a humidified atmosphere with 5% CO2 (rel. humidity about 95%). The cells were continuously maintained in and passaged in sterile culture flasks containing a 1:1 mixture of Dulbecco's modified eagle medium and nutrient mixture F-12 (D-MEM/F-12 1×, liquid, with L-Glutamine) supplemented with 9% fetal bovine serum and 0.9% Penicillin/Streptomycin solution. The complete medium was supplemented with 3.0 μg/ml Puromycin.
# Whole cell currents were measured with HEKA EPC-10 amplifiers using PatchMaster software. Cell culture dishes for recordings were placed on the dish holder of the microscope and continuously perfused (1 ml/min) with “bath solution” (NaCl 137 mM, KCl 4 mM, CaCl2 1.8 mM, MgCl2 1 mM, HEPES 10 mM, D-Glucose 10 mM, pH (NaOH) 7.4). All solutions applied to cells including the pipette solution were maintained at room temperature (19° C.-30° C.). After formation of a Gigaohm seal between the patch electrodes and transfected individual HEK 293 cells (pipette resistance range: 2.5 MΩ-6.0 MΩ; seal resistance range: >1 GQ) the cell membrane across the pipette tip was ruptured to assure electrical access to the cell interior (whole-cell patch-configuration). At this point the bath solution is switched to “NMDA bath solution” (NaCl 137 mM, KCl 4 mM, CaCl2 2.8 mM, HEPES 10 mM, D-Glucose 10 mM, Cremophore 0.02%, pH (NaOH) 7.4). NMDA inward currents were measured upon application of 30 μM NMDA (and 5.0 μM Glycine) to patch-clamped cells (2 applications) for 5 s. The cells were voltage clamped at a holding potential of −80 mV. For the analysis of test articles, NMDA receptors were stimulated by 30 μM NMDA and 5.0 μM Glycine after sequential pre-incubation of increasing concentrations of the test article. Pre-incubation duration was 30 s. Stimulation duration was 5 s Test articles were dissolved in DMSO to form stock solutions of 0.1 mM and 1 mM. Test articles were diluted to 0.1 μM and 1 μM in “NMDA bath solution”. Both concentrations of test articles were tested on each cell. The same concentration was applied at least three times or until the steady state current amplitude was reached. Every day one cell was tested with 50 μM PREGS (positive control) using the same application protocol to test whether cells were successfully transfected with NMDA receptors.
# [2] = target: NMDA receptor (GRIN1/GRIN2A) (Homo sapiens, UniProt Q05586+Q12879); assay: NMDA potentiation, two electrode voltage clamp (TEVC) of Xenopus oocytes expressing NMDA receptor; type: cell-based; settings: 10 μM compound, 3 μM Glutamate and Glycine
# Method: as §1
# The Two Electrode Voltage Clamp (TEVC) technique was used to investigate the effects of compounds (10 μM) on the NMDA receptor (GRIN1/GRIN2A) expressed in Xenopus oocytes. Glutamate/Glycine peak and steady-state currents were recorded from oocytes that expressed the NMDA receptor and the modulatory effects of the test items on these currents were investigated.
# Ovaries were harvested from Xenopus Laevis females that had been deeply anesthetized by cooling at 4° C. and immersion in Tricaine methanesulfonate (MS-222 at a concentration of 150 mg/L) in sodium bicarbonate (300 mg/L). Once anesthetized the animal was decapitated and pithed following the rules of animal rights from the Geneva canton. A small piece of ovary was isolated for immediate preparation while the remaining part was placed at 4° C. in a sterile Barth solution containing in mM NaCl 88, KCl 1, NaHCO3 2.4, HEPES 10, MgSO4·7H2O 0.82, Ca(NO3)2·4H2O 0.33, CaCl2·6H2O 0.41, at pH 7.4, and supplemented with 20 μg/ml of kanamycin, 100 unit/ml penicillin and 100 μg/ml streptomycin. All recordings were performed at 18° C. and cells were super-fused with medium containing in mM: NaCl 82.5, KCl 2.5, HEPES 5, CaCl2·2H2O, ·6H2O 1, pH 7.4.
# Oocytes were injected with either cDNAs encoding for the human GRIN1 and GRIN2A subunits, using a proprietary automated injection device (Hogg et al., J. Neurosci. Methods, (2008) 169: 65-75) and receptor expression was assessed using electrophysiology at least two days later. The ratio of cDNA injection for GRIN1 and GRIN2A was 1:1. Electrophysiological recordings were made using an automated process equipped with standard TEVC and data were captured and analyzed using a proprietary data acquisition and analysis software running under Matlab (Mathworks Inc.). The membrane potential of the oocytes was maintained at −80 mV throughout the experiments. To explore the effects of proprietary compounds, currents were evoked by applying 3 μM Glutamate and […] Glycine for 10 s. Oocytes were then washed for 90 s before being exposed to the test article at a concentration of 10 μM for 120 s. Following this, 3 μM Glutamate and […] Glycine were immediately reapplied for 10 s. Potentiation of both the peak current and the steady state current was assessed. For statistical analysis values were computed either with Excel (Microsoft) or Matlab (Mathworks Inc.). To obtain mean measurements with standard deviations, all experiments were carried out using at least three cells.
# Glutamate was prepared as a concentrated stock solution ([…]) in water and then diluted in the recording medium to obtain the desired test concentration. Glycine was prepared as a stock solution at 1 M in water. Compounds were prepared as stock solution ([…]) in DMSO and then diluted in the recording medium to obtain the desired test concentration.
# T1 sequence (Q12879 23-1464, other chains not shown): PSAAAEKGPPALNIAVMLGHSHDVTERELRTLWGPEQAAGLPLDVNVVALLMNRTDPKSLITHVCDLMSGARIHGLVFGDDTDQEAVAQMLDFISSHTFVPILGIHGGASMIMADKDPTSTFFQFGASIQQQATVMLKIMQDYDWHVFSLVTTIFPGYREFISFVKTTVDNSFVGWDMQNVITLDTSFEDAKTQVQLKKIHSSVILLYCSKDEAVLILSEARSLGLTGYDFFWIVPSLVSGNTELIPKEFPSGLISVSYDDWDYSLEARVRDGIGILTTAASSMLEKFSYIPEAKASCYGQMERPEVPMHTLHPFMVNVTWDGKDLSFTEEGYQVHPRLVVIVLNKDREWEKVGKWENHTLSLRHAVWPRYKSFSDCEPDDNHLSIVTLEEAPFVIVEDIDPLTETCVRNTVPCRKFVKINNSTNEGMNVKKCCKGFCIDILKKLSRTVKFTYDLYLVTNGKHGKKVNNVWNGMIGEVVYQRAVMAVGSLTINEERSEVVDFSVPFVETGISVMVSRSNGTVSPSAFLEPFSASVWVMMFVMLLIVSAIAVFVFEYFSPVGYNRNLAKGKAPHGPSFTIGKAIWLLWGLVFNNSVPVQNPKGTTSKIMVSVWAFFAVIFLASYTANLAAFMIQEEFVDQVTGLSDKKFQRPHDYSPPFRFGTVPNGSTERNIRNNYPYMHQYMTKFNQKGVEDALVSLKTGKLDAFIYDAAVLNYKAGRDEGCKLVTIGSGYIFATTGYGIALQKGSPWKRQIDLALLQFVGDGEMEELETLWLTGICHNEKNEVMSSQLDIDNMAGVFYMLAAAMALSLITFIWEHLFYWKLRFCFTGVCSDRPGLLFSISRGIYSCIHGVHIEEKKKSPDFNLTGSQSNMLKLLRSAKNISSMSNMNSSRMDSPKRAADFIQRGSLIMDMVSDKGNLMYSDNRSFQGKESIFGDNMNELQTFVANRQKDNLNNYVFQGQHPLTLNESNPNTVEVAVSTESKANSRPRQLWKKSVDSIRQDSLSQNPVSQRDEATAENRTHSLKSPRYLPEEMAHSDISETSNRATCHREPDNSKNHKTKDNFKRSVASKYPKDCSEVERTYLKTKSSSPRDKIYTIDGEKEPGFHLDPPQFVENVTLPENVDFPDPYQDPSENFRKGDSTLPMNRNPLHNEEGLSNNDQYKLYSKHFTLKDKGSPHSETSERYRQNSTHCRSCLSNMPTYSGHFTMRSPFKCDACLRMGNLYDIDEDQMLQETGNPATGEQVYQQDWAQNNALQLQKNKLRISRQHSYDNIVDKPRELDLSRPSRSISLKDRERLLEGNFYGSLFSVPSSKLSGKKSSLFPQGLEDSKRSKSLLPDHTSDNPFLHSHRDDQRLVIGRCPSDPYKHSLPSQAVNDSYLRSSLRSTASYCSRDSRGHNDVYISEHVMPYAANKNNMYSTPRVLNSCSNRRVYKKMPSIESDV
# NMDA receptor (GRIN1/GRIN2A), sequence (Q12879 23-1464, other chains not shown): as above
SMILES,activation at 0.1 µM [1],activation at 1 µM [1],activation at 10 µM [2]
"CC(O)CCC(C)[C@H]1CC[C@H]2[C@@H]3CC=C4C[C@@H](O)CC[C@]4(C)[C@H]3CC[C@]12C (stereo partly shown) [Comparison compound 1, reference compound]",10 to 75%,75 to 150%,
"CC(CCC(C)(C)O)[C@H]1CC[C@H]2[C@@H]3CC=C4C[C@@](C)(O)CC[C@]4(C)[C@H]3CC[C@]12C (stereo partly shown) [Comparison compound 2, reference compound]",75 to 150%,> 250%,
C#C[C@](C)(O)CC[C@@H](C)[C@H]1CC[C@H]2[C@@H]3CC=C4C[C@@](C)(O)CC[C@]4(C)[C@H]3CC[C@]12C [Compound 10-3],,,10 to 50%
C#C[C@@](C)(O)CC[C@@H](C)[C@H]1CC[C@H]2[C@@H]3CC=C4C[C@@](C)(O)CC[C@]4(C)[C@H]3CC[C@]12C [Compound 10-4],,,10 to 50%
C#CC(C)(O)CC[C@@H](C)[C@H]1CC[C@H]2[C@@H]3CC[C@H]4C[C@@](C)(O)CC[C@]4(C)[C@H]3CC[C@]12C (stereo partly shown) [Compound 10-6],,,50 to 100%
C=CC(C)(O)CC[C@@H](C)[C@H]1CC[C@H]2[C@@H]3CC[C@H]4C[C@@](C)(O)CC[C@]4(C)[C@H]3CC[C@]12C (stereo partly shown) [Compound 10-7],,,50 to 100%
C#C[C@](C)(O)CC[C@@H](C)[C@H]1CC[C@H]2[C@@H]3CC[C@H]4C[C@@](C)(O)CC[C@]4(C)[C@H]3CC[C@]12C [Compound 10-8],,,50 to 100%
C#C[C@@](C)(O)CC[C@@H](C)[C@H]1CC[C@H]2[C@@H]3CC[C@H]4C[C@@](C)(O)CC[C@]4(C)[C@H]3CC[C@]12C [Compound 10-9],,,10 to 50%
C=C[C@](C)(O)CC[C@@H](C)[C@H]1CC[C@H]2[C@@H]3CC[C@H]4C[C@@](C)(O)CC[C@]4(C)[C@H]3CC[C@]12C [Compound 10-10],,,10 to 50%
C=C[C@@](C)(O)CC[C@@H](C)[C@H]1CC[C@H]2[C@@H]3CC[C@H]4C[C@@](C)(O)CC[C@]4(C)[C@H]3CC[C@]12C [Compound 10-11],,,10 to 50%
C=C[C@](C)(O)CC[C@@H](C)[C@H]1CC[C@H]2[C@@H]3CC=C4C[C@@](C)(O)CC[C@]4(C)[C@H]3CC[C@]12C [Compound 10-12A],,,10 to 50%
C=C[C@@](C)(O)CC[C@@H](C)[C@H]1CC[C@H]2[C@@H]3CC=C4C[C@@](C)(O)CC[C@]4(C)[C@H]3CC[C@]12C [Compound 10-12B],,,10 to 50%
C=CC(C)(O)CC[C@@H](C)[C@H]1CC[C@H]2[C@@H]3CC=C4C[C@@](C)(O)CC[C@]4(C)[C@H]3CC[C@]12C (stereo partly shown) [Compound 10-12],,,10 to 50%
C[C@H](CCC(C)(O)CCO)[C@H]1CC[C@H]2[C@@H]3CC=C4C[C@@](C)(O)CC[C@]4(C)[C@H]3CC[C@]12C (stereo partly shown) [Compound 10-13],,,50 to 100%
COCCC(C)(O)CC[C@@H](C)[C@H]1CC[C@H]2[C@@H]3CC=C4C[C@@](C)(O)CC[C@]4(C)[C@H]3CC[C@]12C (stereo partly shown) [Compound 10-14],,,50 to 100%
C[C@H](CC[C@@](C)(O)CCO)[C@H]1CC[C@H]2[C@@H]3CC[C@H]4C[C@@](C)(O)CC[C@]4(C)[C@H]3CC[C@]12C [Compound 10-16],,,10 to 50%
COCC[C@](C)(O)CC[C@@H](C)[C@H]1CC[C@H]2[C@@H]3CC[C@H]4C[C@@](C)(O)CC[C@]4(C)[C@H]3CC[C@]12C [Compound 10-17],,,> 100%
C[C@H](CC[C@](C)(O)CCO)[C@H]1CC[C@H]2[C@@H]3CC[C@H]4C[C@@](C)(O)CC[C@]4(C)[C@H]3CC[C@]12C [Compound 10-18],,,50 to 100%
COCC[C@@](C)(O)CC[C@@H](C)[C@H]1CC[C@H]2[C@@H]3CC[C@H]4C[C@@](C)(O)CC[C@]4(C)[C@H]3CC[C@]12C [Compound 10-19],,,10 to 50%
C[C@H](CC[C@@](C)(O)CCO)[C@H]1CC[C@H]2[C@@H]3CC=C4C[C@@](C)(O)CC[C@]4(C)[C@H]3CC[C@]12C [Compound 10-20],,,10 to 50%
C[C@H](CC[C@](C)(O)CCO)[C@H]1CC[C@H]2[C@@H]3CC=C4C[C@@](C)(O)CC[C@]4(C)[C@H]3CC[C@]12C [Compound 10-21],,,10 to 50%
COCC[C@](C)(O)CC[C@@H](C)[C@H]1CC[C@H]2[C@@H]3CC=C4C[C@@](C)(O)CC[C@]4(C)[C@H]3CC[C@]12C [Compound 10-22],,,50 to 100%
COCC[C@@](C)(O)CC[C@@H](C)[C@H]1CC[C@H]2[C@@H]3CC=C4C[C@@](C)(O)CC[C@]4(C)[C@H]3CC[C@]12C [Compound 10-23],,,10 to 50%
C[C@H](CC(F)(F)[C@H](C)O)[C@H]1CC[C@H]2[C@@H]3CC=C4C[C@@](C)(O)CC[C@]4(C)[C@H]3CC[C@]12C [Compound 11-15],,,10 to 50%
C[C@H](CC(F)(F)[C@@H](C)O)[C@H]1CC[C@H]2[C@@H]3CC=C4C[C@@](C)(O)CC[C@]4(C)[C@H]3CC[C@]12C [Compound 11-16],,,10 to 50%
C[C@H](CC(F)(F)C(C)(C)O)[C@H]1CC[C@H]2[C@@H]3CC=C4C[C@@](C)(O)CC[C@]4(C)[C@H]3CC[C@]12C [Compound 11-19],,,10 to 50%
